Assay results published in patent US20230255986A1, “PHARMACEUTICAL COMPOSITIONS FOR TREATING INFECTIONS BY A NEUROTROPIC VIRUS” (priority 2020, published 2023).
Counter-ions that a name gives are not always drawn.

Experiments:
[1] = at 20° C.; cited from earlier work
[2] = mouse, in vivo, 4 mg/kg, 5 days
Procedure: The brain and plasma levels of (TDF) after the administration of the composition to mice at the dose of 4 mg/kg by the oral (n=6) or the nasal route (n=6) over 5 days have been measured and are shown in the Table below:

| SMILES | water solubility [1] | brain concentration, nasal versus oral administration [2] |
| --- | --- | --- |
| CC(C)OC(=O)[C@H](C)N[P@](=O)(CO[C@H](C)Cn1cnc2c(N)ncnc21)Oc1ccccc1 [Tenofovir alafenamide] | about 4.86 mg/ml | – |
| CC(C)OC(=O)OCOP(=O)(CO[C@H](C)Cn1cnc2c(N)ncnc21)OCOC(=O)OC(C)C [Tenofovir disoproxil fumarate] | – | more than 4 fold |
